Where a name gives a salt, the structure may show the parent alone. Read-outs that look alike come from different tables or passages of the source.
Legend:
Aβtotal [1] = test: γ-secretase-modulating activity, Method 2: Aβtotal Alphalisa in supernatant of SKNBE2 cells carrying APP 695-wild type (Table 3b); format: cell-based; settings: overnight, read-out: IC50 Aβtot
Summary of the method: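 Secreted Aβtotal was quantified by AlphaLISA pairing an N-terminal antibody (JRF/AβN/25) with biotinylated mid-region 4G8. Wild-type APP 695 SKNBE2 cells received serially varied compound overnight at 37 °C; IC50 came from a 4-parameter nonlinear regression of percent of control against log dose.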

Aβ42 [2] = test: γ-secretase-modulating activity, Method 2: Aβ42 Alphalisa in supernatant of SKNBE2 cells carrying APP 695-wild type (Table 3b); format: cell-based; settings: overnight
Summary of the method: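 Aβ42 in the supernatant was quantified by AlphaLISA sandwich (JRF/cAβ42/26 with JRF/AβN/25). Cells were wild-type APP695 SKNBE2, exposed to compound overnight at 37° C., 5% CO2. Data were normalised to untreated maximum and fitted with a four-parameter curve to give IC50.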

Aβ42 [3] = test: In vivo efficacy, Method 2: brain soluble Aβ42 lowering 4 h after a single oral dose, ELISA (Table 4b); parameters: species or system mouse; settings: dose 30 mg/kg oral dosing
Source text: (§1) To determine whether acute administration of an Aβ42 lowering agent would reduce Aβ42 levels in vivo, non-transgenic rodents, e.g. mice or rats were used. Animals treated with the Aβ42 lowering agent were examined and compared to those untreated or treated with vehicle and brain levels of soluble Aβ42 and total Aβ were quantitated by standard techniques, for example, using ELISA. Treatment periods varied from hours (h) to days and were adjusted based on the results of the Aβ42 lowering once a time course of onset of effect could be established.
(§2) A typical protocol for measuring Aβ42 lowering in vivo is shown but it is only one of many variations that could be used to optimize the levels of detectable Aβ. For example, Aβ42 lowering compounds were formulated in 20% of Captisol® (a sulfobutyl ether of β-cyclodextrin) in water or 20% hydroxypropyl β cyclodextrin. The Aβ42 lowering agents were administered as a single oral dose or by any acceptable route of administration to overnight fasted animals. After 4 h, the animals were sacrificed and Aβ42 levels were analysed.
(§3) Blood was collected by decapitation and exsanguinations in EDTA-treated collection tubes. Blood was centrifuged at 1900 g for 10 minutes (min) at 4° C. and the plasma recovered and flash frozen for later analysis. The brain was removed from the cranium and hindbrain. The cerebellum was removed and the left and right hemisphere were separated. The left hemisphere was stored at −18° C. for quantitative analysis of test compound levels. The right hemisphere was rinsed with phosphate-buffered saline (PBS) buffer and immediately frozen on dry ice and stored at −80° C. until homogenization for biochemical assays.
(§4) Mouse brains from non-transgenic animals were resuspended in 8 volumes of 0.4% DEA (diethylamine)/50 mM NaCl containing protease inhibitors (Roche-11873580001 or 04693159001) per gram of tissue, e.g. for 0.158 g brain, add 1.264 ml of 0.4% DEA. All samples were homogenized in the FastPrep-24 system (MP Biomedicals) using lysing matrix D (MPBio #6913-100) at 6 m/s for 20 seconds. Homogenates were centrifuged at 221.300×g for 50 min. The resulting high speed supernatants were then transferred to fresh eppendorf tubes. Nine parts of supernatant were neutralized with 1 part 0.5 M Tris-HCl pH 6.8 and used to quantify Aβtotal and Aβ42.
(§5) To quantify the amount of Aβtotal and Aβ42 in the soluble fraction of the brain homogenates, Enzyme-Linked-Immunosorbent-Assays were used. Briefly, the standards (a dilution of synthetic Aβ1-40 and Aβ1-42, Bachem) were prepared in 1.5 ml Eppendorf tube in Ultraculture, with final concentrations ranging from 10000 to 0.3 pg/ml. The samples and standards were co-incubated with HRPO-labelled N-terminal antibody for Aβ42 detection and with the biotinylated mid-domain antibody 4G8 for Aβtotal detection. 50 μl of conjugate/sample or conjugate/standards mixtures were then added to the antibody-coated plate (the capture antibodies selectively recognize the C-terminal end of Aβ42, antibody JRF/cAβ42/26, for Aβ42 detection and the N-terminus of Aβ, antibody JRF/rAβ/2, for Aβtotal detection). The plate was allowed to incubate overnight at 4° C. in order to allow formation of the antibody-amyloid complex. Following this incubation and subsequent wash steps the ELISA for Aβ42 quantification was finished by addition of Quanta Blu fluorogenic peroxidase substrate according to the manufacturer's instructions (Pierce Corp., Rockford, Ill.). A reading was performed after 10 to 15 min (excitation 320/emission 420).
In this model at least 20% Aβ42 lowering compared to untreated animals would be advantageous.
(§6) The results are shown in Table 4b (dose 30 mg/kg oral dosing): […]

Aβtotal [4] = test: In vivo efficacy, Method 2: brain soluble Aβtotal lowering 4 h after a single oral dose, ELISA (Table 4b); parameters: species or system mouse; settings: dose 30 mg/kg oral dosing
Source text: as §1, §2, §3, §4, §5
For Aβtotal detection, a Streptavidine-Peroxidase-Conjugate was added, followed 60 min later by an additional wash step and addition of Quanta Blu fluorogenic peroxidase substrate according to the manufacturer's instructions (Pierce Corp., Rockford, Ill.). A reading was performed after 10 to 15 min (excitation 320 nm/emission 420 nm).
as §6

Row | Compound | melting point [°C] | IC50 (Aβtotal [1]; Homo sapiens) [nM] | IC50 (Aβ42 [2]; Homo sapiens) [nM] | IC50 (Aβtotal [1]) [nM] | IC50 (Aβ42 [2]) [nM] | Aβ42 (% Ctrl) _Mean (Aβ42 [3]) [% Ctrl] | Aβtotal (% Ctrl) _Mean (Aβtotal [4]) [% Ctrl]
1 | COc1cc(-c2nc(Sc3cccc(C(F)(F)F)c3)n(C)n2)ccc1-n1cnc(C)c1 (as salt: HCl) (hydrate or solvate) [Compound 249] | 78.4 | – | – | – | – | – | –
2 | COc1cc(-c2nc(Nc3ccccc3C(F)(F)F)n(C)n2)ccc1-n1cnc(C)c1 [Compound 157] | 159.3 | > 15000 | 63 | – | – | – | –
3 | COc1ccc(CO)c(Nc2nc(-c3ccc(-n4cnc(C)c4)c(OC)c3)nn2C)c1 [Compound 200] | 235.2 | > 10000 | 158 | – | – | – | –
4 | COc1cc(-c2nc(Nc3cccc(C(F)(F)F)n3)n(C)n2)ccc1-n1cnc(C)c1 [Compound 236] | 240 | > 10000 | 575 | – | – | – | –
5 | COc1cc(-c2nc3n(n2)CCCC3c2ccc(F)cc2)ccc1-n1cnc(C)c1 (centres unmarked) [Compound 251] | 190.5 | > 10000 | 245 | – | – | – | –
6 | COc1cc(-c2nc3n(n2)CCCC3c2ccc(F)cc2C)ccc1-n1cnc(C)c1 (centres unmarked) [Compound 258] | 241.8 | > 10000 | 62 | – | – | – | –
7 | COc1cc(-c2nc3n(n2)CCN(C)C3c2ccccc2C(F)(F)F)ccc1-n1cnc(C)c1 (centres unmarked) [Compound 275] | 154.26 | > 10000 | 269 | – | – | – | –
8 | COc1cc(-c2nc3n(n2)CCNC3c2ccccc2C(F)(F)F)ccc1-n1cnc(C)c1 (centres unmarked) [Compound 278] | 183 | > 10000 | 398 | – | – | – | –
9 | COc1cc(-c2nc3n(n2)CCOC3c2cc(OC(F)(F)F)ccc2F)ccc1-n1cnc(C)c1 (centres unmarked) [Compound 281] | 232.1 | > 10000 | 76 | – | – | – | –
10 | COc1cc(-c2nc3nccc(-c4ccccc4C(F)(F)F)n3n2)ccc1-n1cnc(C)c1 [Compound 290] | 191 | > 10000 | 224 | – | – | – | –
11 | COc1cc(-c2nc3c(-c4ccccc4C(F)(F)F)nccn3n2)ccc1-n1cnc(C)c1 [Compound 294] | 176.9 | > 10000 | 537 | – | – | – | –
12 | COc1cc(-c2nc3cncc(-c4ccc(F)cc4C)n3n2)ccc1-n1cnc(C)c1 [Compound 295] | 210.7 | > 10000 | 537 | – | – | – | –
13 | COc1cc(C(F)(F)F)cc(Nc2nc(-c3ccc(-n4cnc(C)c4)c(OC)n3)nn2C)c1F [Compound 353] | – | – | – | > 10000 | 17 | 63 | 2

Continued, in another order:

Row | melting point [°C] | IC50 (Aβtotal [1]; Homo sapiens) [nM] | IC50 (Aβ42 [2]; Homo sapiens) [nM] | IC50 (Aβtotal [1]) [nM] | IC50 (Aβ42 [2]) [nM] | Compound | Aβ42 (% Ctrl) _Mean (Aβ42 [3]) [% Ctrl] | Aβtotal (% Ctrl) _Mean (Aβtotal [4]) [% Ctrl]
14 | 149.3 | > 10000 | 468 | – | – | COc1cc(-c2nc(-c3ccccc3Cl)n(C)n2)ccc1-n1cnc(C)c1 [Compound 2] | – | –
15 | 218 | 8320 | 25 | – | – | COc1cc(-c2nc3n(n2)CCCC3c2ccccc2C(F)(F)F)ccc1-n1cnc(C)c1 (centres unmarked) [Compound 10] | – | –
16 | 211.6 | > 10000 | 76 | – | – | COc1cc(-c2nc3n(n2)CCCN3c2ccccc2C(F)(F)F)ccc1-n1cnc(C)c1 [Compound 18] | – | –
17 | 262.6 | > 10000 | 257 | – | – | COc1cc(-c2nc(-c3ccc(-n4cnc(C)c4)c(OC)c3)n[nH]2)ccc1Cl [Compound 20] | – | –
18 | 145.3 | > 10000 | 6920 | – | – | COc1cc(-c2nc(C(=O)c3ccc(F)cc3)n(C)n2)ccc1-n1cnc(C)c1 [Compound 21] | – | –
19 | 159 | > 10000 | 562 | – | – | COc1cc(-c2nc(-c3ccccc3Cl)n(C(C)C)n2)ccc1-n1cnc(C)c1 [Compound 66] | – | –
20 | 122.23 | > 10000 | 316 | – | – | COc1cc(-c2nc(-c3cc(F)c(F)c(F)c3)n(C(C)C)n2)ccc1-n1cnc(C)c1 [Compound 84] | – | –
21 | 159.4 | > 10000 | 49 | – | – | COc1cc(-c2nc(Nc3ccccc3C)n(C)n2)ccc1-n1cnc(C)c1 [Compound 97] | – | –
22 | 189.7 | > 10000 | 60 | – | – | COc1cc(-c2nc(Nc3ccc(F)cc3C)n(C)n2)ccc1-n1cnc(C)c1 [Compound 130] | – | –
23 | 230.1 | > 10000 | 17 | – | – | COc1nc(-c2nc(Nc3cc(C(F)(F)F)ccc3F)n(C)n2)ccc1-n1cnc(C)c1 [Compound 154] | – | –
24 | 193.8 | > 10000 | 89 | – | – | COc1cc(-c2nc(Nc3cc(C(C)(C)O)ccc3F)n(C)n2)ccc1-n1cnc(C)c1 [Compound 175] | – | –
25 | 193.4 | 9770 | 45 | – | – | COc1cc(-c2nc3nc(-c4ccccc4C(F)(F)F)ccn3n2)ccc1-n1cnc(C)c1 [Compound 291] | – | –

Source: patent publication US8946266B2, “Substituted triazole and imidazole derivatives as gamma secretase modulators” (Janssen Pharmaceuticals, Inc., priority 2009, dated 2015)
